Patent publication US20260159519A1, “IMIDAZOPYRIDAZINE SUBSTITUTED BENZENE RING DERIVATIVE, PREPARATION METHOD, PHARMACEUTICAL COMPOSITION AND USE” (SHANGHAI SIMR BIOTECHNOLOGY CO., LTD., priority 2022, published 2026)

Legend:
[1] = biological target: T1, human α1-GABAA receptor (α1-GABAAR-HEK293 cells) (Homo sapiens, UniProt P14867+P18507); assay: Whole-cell patch-clamp electrophysiology, positive allosteric modulatory activity on α1-GABAA receptor; assay type: cell-based; settings: read-out: α1-GABAA positive allosteric modulatory activity
T1 construct: expressed in transfected cells

[2] = biological target: T2, human α2-GABAA receptor (α2-GABAAR-HEK293 cells) (Homo sapiens, UniProt P18507+P47869); assay: Whole-cell patch-clamp electrophysiology, positive allosteric modulatory activity on α2-GABAA receptor; assay type: cell-based; settings: read-out: α2-GABAA positive allosteric modulatory activity
T2 construct: expressed in transfected cells

[3] = test system: Chinese hamster ovary cells (CHO-WBL cells); assay: In vitro micronucleus assay; assay type: cell-based; settings: 3-hour treatment with S9, 3-hour and 24-hour treatment without S9; overall judgment
From the text: The experimental design is based on the experimental purpose and follows the following experimental design guidelines: • (1) OECD Guidelines for the Testing of Chemicals 487, In Vitro Mammalian Cell Micronucleus Test, revised in 2016; • (2) ICH S2 (R1): Guideline on Genotoxicity Testing and Data Interpretation for Pharmaceuticals Intended for Human Use, validated in November 2011.
Experimental system and selection rationale: Chinese hamster ovary cells (CHO-WBL cells) were used as an experimental system in this experiment. The cell line has a karyotype containing 21 chromosomes and a growth cycle of 12 to 13 hours. CHO-WBL cells were originally derived from Dr. S. Wolff at the University of California in San Francisco, USA, then cloned in the laboratory of Dr. A. Bloom at Columbia University in New York, and cloned again by Dr. S. Galloway at Litton Bionetics Laboratory in Maryland. The cell stock solution was stored in liquid nitrogen. The karyotype of each batch of cell stock solution was identified, and tests confirmed that it was free from mycoplasma contamination. The number of passages after cell cloning will not exceed 15. Chinese hamster ovary cells were chosen because the cell line is recommended for use in OECD Guidelines for the Testing of Chemicals 487 and has been proven to be sensitive to a variety of clastogens/aneugens (Marilyn J. et al., 2006).
Medium and cell growth conditions: Chinese hamster ovary cells were cultured in McCoy's 5A complete medium (McCoy's 5A complete medium supplemented with 10 vt % fetal bovine serum, 2 mM GlutaMAX™ medium, 100 units/mL penicillin, and 100 μg/mL streptomycin), and grown in a standard environment (a high-humidity incubator with a temperature of 37° C. and a CO2 concentration of 5%). The day before administration, CHO-WBL cells in exponential growth phase were inoculated onto an eight-well cell culture slide at a density of 8×10^3 cells/400 μL McCoy's 5A complete medium/well.
Metabolic activation system: The in vitro metabolic activation system (Maron and Ames, 1983) contains a rat liver microsomal homogenate induced by β-naphthoflavone and phenobarbital (referred to as S9) and an NADPH-generating system (i.e., NADP disodium and isocitric acid trisodium). S9 was purchased from CHI Scientific, Inc. and stored in a −75° C. refrigerator prior to use. Preparation method for S9 homogenate: Male Sprague Dawley rats were intraperitoneally injected with a single dose of p-naphthoflavone and phenobarbital, followed by material preparation.
Preparation of S9 metabolic activation system: NADP disodium salt and isocitric acid trisodium salt were first dissolved in serum-free medium to prepare a core solution, which was then filtered through a 0.22 µm filter to sterilize. Immediately before use, the S9 homogenate was thawed, and the components of the S9 metabolic activation system were mixed in the proportions shown in Table 2 below.
Dose exploration experiment: In the dose exploration experiment, 8 administration concentrations were established in each administration treatment series. For each concentration of the test substance, 1 well of cells was set up. According to the ICH S2 (R1) guidelines, when not limited by the solubility of the test substance in the solvent/medium or the cytotoxicity of the test substance, the recommended maximum concentration is 1 mM or 0.5 mg/mL, whichever is lower. However, when limited by solubility, the test maximum concentration is the minimum concentration at which a small amount of precipitate is visible in the medium under the microscope. To ensure that the upper limit of solubility in the medium can be reached, up to 4 concentrations with visible precipitate can be tested.

[4] = biological target: T3, human α2-GABAA receptor (BZD site, membrane protein of HEK293 cells) (Homo sapiens, UniProt P18507+P47869); assay: Radioligand competitive binding assay (3H-flunitrazepam) at the BZD site of the α2-GABAA receptor; settings: competition with 1 nM 3H-flunitrazepam; Ki calculated from IC50; read-out: α2 Ki
T3 construct: expressed in transfected cells

Row | activation at 0.1 µM [1] [%] | activation at 0.1 µM [2] [%] | Ki [4] [nM] | SMILES | Results of in vitro micronucleus assay [3]
1 | 29 | 122 | 9.24 | CCn1cnc2c(-c3ccc(F)c(-c4cc5cncnc5cc4OC)c3)cnnc21 [Example 164, 6-(5-(7-Ethyl-7H-imidazo[4,5-c]pyridazin-4-yl)-2-fluorophenyl)-7-methoxyquinazoline] | –
2 | 12 | 128 | 2.39 | CCn1cnc2c(-c3ccc(F)c(-c4cc5cc(COC)c(=O)n(C)c5cc4OC)c3)cnnc21 [Example 166, 6-(5-(7-Ethyl-7H-imidazo[4,5-c]pyridazin-4-yl)-2-fluorophenyl)-7-methoxy-3-(methoxymethyl)-1-methylquinolin-2(1H)-one] | –
3 | 35 | 125 | 13.9 | CCN1C(=O)Cc2cc(-c3cc(-c4cnnc5c4ncn5CC)ccc3F)c(OC)cc21 [Example 167, 1-Ethyl-5-(5-(7-ethyl-7H-imidazo[4,5-c]pyridazin-4-yl)-2-fluorophenyl)-6-methoxyindol-2-one] | –

Row | SMILES | activation at 0.1 µM [1] [%] | activation at 0.1 µM [2] [%] | Ki [4] [nM] | Results of in vitro micronucleus assay [3]
4 | CCn1cnc2c(-c3ccc(F)c(-c4ccc(S(=O)(=O)CC)cc4OC)c3)cnnc21 [CVL-865, reference compound] | 100 | 100 | – | Positive
